The test system of one data set is Escherichia coli 67. The data set is described as follows: Antibacterial activity in vitro, agar plate dilution method (MIC). The settings on record: Mueller Hinton agar, 10^6 cells/ml, 37° C., 20 hours. Format: cell-based. Here is the method: (§1) Antibacterial activity in vitro was determined in accordance with the agar plate dilution method. A platinum loop each of test bacteria (10^6 cells/ml), cultured in Mueller Hinton broth, was inoculated on Mueller Hinton agar plates which contained test compounds at various concentrations. After cultivating at 37° C. for 20 hours, the minimum inhibitory concentration (MIC μg/ml) was determined.

The test system of data set [1] is Klebsiella pneumoniae IFO3317. The data set is described as above. Type of data set: cell-based. The settings on record: Mueller Hinton agar, 10^6 cells/ml, 37° C., 20 hours. Here is the method:
as §1

Data set [2] relates to Pseudomonas aeruginosa IFO3445. The data set is described as above. Type of data set: cell-based. The settings on record: Mueller Hinton agar, 10^6 cells/ml, 37° C., 20 hours. Here is the method: as §1
The test system of data set [3] is Serratia marcescens IFO3759. The data set is described as above. The settings on record: Mueller Hinton agar, 10^6 cells/ml, 37° C., 20 hours. Type of data set: cell-based. Here is the method: as §1
Data set [4] has as its system Staphylococcus aureus Smith. The data set is described as above. Format: cell-based. The settings on record: Mueller Hinton agar, 10^6 cells/ml, 37° C., 20 hours. Here is the method: as §1
For another data set, the system named is Serratia marcescens 274. The data set is described as follows: Protection ability against systemic infection. Format: in vivo, ICR mice. The settings on record: iv, 168 h, i.p. infection, i.v. compound 1 hour later, survival at 1 week. The method, then: (§2) Protection ability against systemic infection was determined as follows. An aqueous suspension of test bacteria was intraperitoneally injected into 10 four week old ICR mice. One hour after the infection, test compounds were intravenously administered. The number of surviving mice was counted 1 week after injection to determine the dose at which 50% of the test animals were alive (ED50 :mg/kg).

The nature of the next data set: LD50, Probit method. The settings on record: in vivo, iv. Here is the method:
Next, LD50 of representative examples of the compounds of the present invention is shown in Table 3 wherein LD50 was determined in accordance with the Probit method.

Data set [5] concerns Staphylococcus aureus 242 (methicillin-resistant strain). The data set is described as follows: Protection ability against systemic infection. Type of data set: in vivo, ICR mice. The settings on record: in Mus musculus, iv, 168 h, i.p. infection, i.v. compound 1 hour later, survival at 1 week. The method, then:
as §2

The subject of a further data set is Escherichia coli 111. The data set is described as follows: Protection ability against systemic infection. Type of data set: in vivo, ICR mice. The settings on record: Escherichia coli, 111, in Mus musculus, iv, 168 h, i.p. infection, i.v. compound 1 hour later, survival at 1 week. The method, then:
as §2

Data set [6] has as its system Pseudomonas aeruginosa IFO3445. The data set is described as follows: Protection ability against systemic infection. Format: in vivo, ICR mice. The settings on record: iv, 168 h, i.p. infection, i.v. compound 1 hour later, survival at 1 week. The method, then:
as §2

Data set [7] deals with Bacteroides fragilis 5524. The data set is described as follows: Antibacterial activity in vitro, agar plate dilution method (MIC). Format: cell-based. The settings on record: Mueller Hinton agar, 10^6 cells/ml, 37° C., 20 hours. Here is the method: as §1
[8] abbreviates: in Mus musculus, Table 2-b, read-out: ED50.
Where [9] appears, read: in Mus musculus, Table 2-a, read-out: ED50.
The mark [10] stands for this setting: Serratia marcescens, 274, in Mus musculus, Table 2-a.

In brackets after ≈: the same amount, converted by molar mass. Where two headings read alike, the source gives them in different places.

As a reminder, the MIC is the lowest concentration found to suppress growth. Usually ED50 stands for the midpoint of the dose-response relation. As usually defined, the LD50 is the dose at which mortality reaches 50%. A low value points to a more toxic substance.

Turning to `Nc1nc(/C(=N/OC(C(=O)O)c2ccc(O)c(O)c2)C(=O)N[C@@H]2C(=O)N3C(C(=O)O)=C(CSc4cc(C(=O)O)c5nnnn5n4)CS[C@H]23)cs1` (stereo partly drawn) [Compound 13, (6R,7R)-7-[2-(2-amino-4-thiazolyl)-2-[Z-[carboxy(3,4-dihydroxyphenyl)methyl]oxyimino]acetamido]-3-[(8-carboxytetrazolo [1,5-b]pyridazin-6-yl)thiomethyl]-8-oxo-5-thia-1-azabicyclo[4.2.0]oct-2-ene-2-carboxylic acid], the MIC was 0.2 µg/mL (≈ 0.269 µM) against Escherichia coli 67; less than 0.05 µg/mL in data set [1]; 0.78 µg/mL (≈ 1.05 µM) in [2]; 0.2 µg/mL (≈ 0.269 µM) in data set [3]; 1.56 µg/mL (≈ 2.09 µM) in [4]. Moreover, the median effective dose (ED50) in the data set with Serratia marcescens 274 (setting [8]) came out at 1.05 mg/kg. The same compound gave an LD50 in “LD50, Probit method” greater than 1000 mg/kg.
Regarding `Cn1nnnc1SCC1=C(C(=O)O)N2C(=O)[C@@H](NC(=O)[C@H](O)c3ccccc3)[C@H]2SC1` [CMD, Cefamandole, reference compound], the 50% effective dose (ED50) in data set [5] (Table 2-a, read-out: ED50) is 31 mg/kg.
Turning to `CC(=O)Oc1cc(C)c(C(=O)O/N=C(\C(=O)N[C@@H]2C(=O)N3C(C(=O)O)=C(CSc4cc(C)nc5nc(C(=O)O)nn45)CS[C@H]23)c2csc(N)n2)cc1OC(C)=O` [Compound 2, (6R,7R)-7-[2-(2-amino-4-thiazolyl)-2-[Z-(4,5-diacetoxy-2-methylbenzoyl)oxyimino]acetamido]-3-[(2-carboxy-5-methyl-s-triazolo [1,5-a]pyrimidin-7-yl)thiomethyl]-8-oxo-5-thia-1-azabicyclo[4.2.0]oct-2-ene-2-carboxylic acid], the MIC against Escherichia coli 67 is less than 0.05 µg/mL; in data set [1], less than 0.05 µg/mL; in data set [2], 0.2 µg/mL (≈ 0.242 µM); in [3], less than 0.05 µg/mL; in data set [4], 0.78 µg/mL (≈ 0.945 µM). Further, the median effective dose (ED50) in the data set with Escherichia coli 111 (Table 2-a, read-out: ED50) stood at 2.28 mg/kg; in data set [6] (setting [9]), 212 mg/kg; in the data set with Serratia marcescens 274 (setting [9]), 3.08 mg/kg; in data set [5] (Table 2-a, read-out: ED50), 7.9 mg/kg. This compound had an LD50 in the data set “LD50, Probit method” greater than 1000 mg/kg.
For `CC(C)(O/N=C(\C(=O)N[C@@H]1C(=O)N2C(C(=O)[O-])=C(C[n+]3ccccc3)CS[C@H]12)c1csc(N)n1)C(=O)O` [CAZ, Ceftazidime, reference compound], the ED50 with Escherichia coli 111 (Table 2-a, read-out: ED50) was found to be 6.55 mg/kg; in the data set with Escherichia coli 111 (Table 2-b), 3.91 mg/kg; in data set [6] (Pseudomonas aeruginosa, IFO3445, in Mus musculus, Table 2-a), 229 mg/kg; in data set [6] (Pseudomonas aeruginosa, IFO3445, in Mus musculus, Table 2-b) it was 230 mg/kg; in the data set with Serratia marcescens 274 (setting [10]) it was 4.23 mg/kg; in the data set with Serratia marcescens 274 (Serratia marcescens, 274, in Mus musculus, Table 2-b), 6.41 mg/kg. Also, the results for the ED50 in data set [5] (Table 2-a) and in data set [5] (Table 2-b) were greater than 100 mg/kg and greater than 2100 mg/kg, respectively.
Consider `Cc1cc(SCC2=C(C(=O)O)N3C(=O)[C@@H](NC(=O)/C(=N\O[C@H](C(=O)O)c4ccc(O)c(O)c4)c4csc(N)n4)[C@H]3SC2)n2nc(C(=O)O)nc2n1` [Compound 9, (6R,7R)-7-[2-(2-amino-4-thiazolyl)-2-[Z-[(S)-carboxy(3,4-dihydroxyphenyl)-methyl]oxyimino]acetamido]-3-[(2-carboxy-5-methyl-s-triazolo [1,5-a]pyrimidin-7-yl)thiomethyl]-8-oxo-5-thia-1-azabicyclo[4.2.0]oct-2-ene-2-carboxylic acid], for which the MIC in [7] was 6.25 µg/mL (≈ 8.25 µM); with Escherichia coli 67, 0.1 µg/mL (≈ 0.132 µM); in data set [1], less than 0.05 µg/mL; in data set [2] it was 1.56 µg/mL (≈ 2.06 µM); in data set [3], 0.05 µg/mL (≈ 0.066 µM); in data set [4] it was 0.78 µg/mL (≈ 1.03 µM). Moreover, the ED50 in the data set on Escherichia coli 111 (Table 2-b, read-out: ED50) is 1.73 mg/kg; in data set [6] (setting [8]), 95 mg/kg; with Serratia marcescens 274 (setting [8]), 0.47 mg/kg; in data set [5] (Table 2-b, read-out: ED50), 3.34 mg/kg. The LD50 in the data set “LD50, Probit method” is greater than 1000 mg/kg.
For the compound `Cc1cc(SCC2=C(C(=O)O)N3C(=O)[C@@H](NC(=O)/C(=N\OC(=O)c4cc(O)c(O)cc4C)c4csc(N)n4)[C@H]3SC2)n2nc(C(=O)O)nc2n1` [Compound 3], the minimal inhibitory concentration (MIC) was less than 0.05 µg/mL in the data set with Escherichia coli 67, less than 0.05 µg/mL in data set [1], 0.2 µg/mL (≈ 0.27 µM) in data set [2] and less than 0.05 µg/mL in data set [3]. Further, the 50% effective dose (ED50) in [6] (setting [9]) was determined as 407 mg/kg; with Serratia marcescens 274 (setting [10]), 1.73 mg/kg; in data set [5] (Table 2-a, read-out: ED50) it was 1.79 mg/kg.
Take `Nc1nc(/C(=N/O[C@H](C(=O)O)c2ccc(O)c(O)c2)C(=O)N[C@@H]2C(=O)N3C(C(=O)[O-])=C(C[n+]4cccc5c4CCC5)CS[C@H]23)cs1` [Compound 16, (6R,7R)-7-[2-(2-amino-4-thiazolyl)-2-[Z-[(S)-carboxy(3,4-dihydroxyphenyl)methyl]oxyimino]acetamido]-3-(2,3-cyclopentenopyridiniummethyl)-8-oxo-5-thia-1-azabicyclo [4.2.0]oct-2-ene-2-carboxylate]: the minimum inhibitory concentration (MIC) is 0.1 µg/mL (≈ 0.15 µM) against Escherichia coli 67; less than 0.05 µg/mL in data set [1]; 0.39 µg/mL (≈ 0.585 µM) in data set [2]; 0.1 µg/mL (≈ 0.15 µM) in data set [3]; 0.78 µg/mL (≈ 1.17 µM) in data set [4]. In “LD50, Probit method”, the LD50 is greater than 1000 mg/kg.
`Cc1cc(SCC2=C(C(=O)O)N3C(=O)[C@@H](NC(=O)/C(=N\OC(C)(C)C(=O)c4ccc(O)c(O)c4)c4csc(N)n4)[C@H]3SC2)n2nc(C(=O)O)nc2n1` [Compound 6, (6R,7R)-7-[2-(2-amino-4-thiazolyl)-2-[Z-[1-(3,4-dihydroxybenzoyl)-1-methylethyl]oxyimino]acetamido]-3-[(2-carboxy-5-methyl-s-triazolo-[1,5-a]pyrimidin-7-yl)thiomethyl]-8-oxo-5-thia-1-azabicyclo[4.2.0]oct-2-ene-2-carboxylicacid]: the MIC is less than 0.05 µg/mL in the data set on Escherichia coli 67; less than 0.05 µg/mL in data set [1]; 0.78 µg/mL (≈ 1.01 µM) in data set [2]; less than 0.05 µg/mL in [3]; 6.25 µg/mL (≈ 8.12 µM) in data set [4]. The LD50 in the data set “LD50, Probit method” was greater than 1000 mg/kg.

Values taken from US5001121A, “Cephalosporin compounds and pharmaceutical compositions thereof” (Mochida Pharmaceutical Co., Ltd., priority 1985, dated 1991).
